The record followed here is patent US20180002288A1, “USE OF PICOLINAMIDES AS FUNGICIDES” (DOW AGROSCIENCES LLC, priority 2014, published 2018).

Molecules are shown by their SMILES. Like-named read-outs stand apart in the source and are kept apart here.

In one assay the test system is Phakopsora pachyrhizi. Kind of assay: Asian Soybean Rust fungicidal activity (PHAKPA). The settings on record: Phakopsora pachyrhizi, in Glycine max.
A further assay relates to Puccinia triticina. Kind of assay: Wheat Brown Rust fungicidal activity (PUCCRT). The following applies: Low Volume Cereal Activity at 121.5 g/Ha. The class given is in vivo.
In another assay the test system is Alternaria solani. Kind of assay: Tomato Early Blight fungicidal activity (ALTESO). The settings on record: 24 h, high volume, 1 Day Protectant, read-out: ALTESO % Control rating. The assay is classed as in vivo. Here is the method:
All fungicides were evaluated using the aforementioned method for their activity vs. all target diseases, unless stated otherwise. Wheat leaf blotch and brown rust activity were also evaluated using track spray applications, in which case the fungicides were formulated as EC formulations, containing 0.1% Trycol 5941 in the spray solutions. Wheat plants (variety Yuma) were grown from seed in a greenhouse in 50% mineral soil/50% soil-less Metro mix until the first leaf was fully emerged, with 7-10 seedlings per pot. These plants were inoculated with an aqueous spore suspension of Zymoseptoria tritici either prior to or after fungicide treatments. After inoculation the plants were kept in 100% relative humidity (one day in a dark dew chamber followed by two to three days in a lighted dew chamber at 20° C.) to permit spores to germinate and infect the leaf. The plants were then transferred to a greenhouse set at 20° C. for disease to develop. When disease symptoms were fully expressed on the 1st leaves of untreated plants, infection levels were assessed on a scale of 0 to 100 percent disease severity. Percent disease control was calculated using the ratio of disease severity on treated plants relative to untreated plants. Tomato plants (variety Outdoor Girl) were propagated in soil-less Metro mix, with each pot having one plant, and used when 12 to 14 days old. Test plants were inoculated with an aqueous spore suspension of Alternaria solani 24 hr after fungicide treatments. After inoculation the plants were kept in a dew room at 22° C. with 100% relative humidity for 48 hr to permit spores to germinate and infect the leaf. The plants were then transferred to a growth room at 22° C. for disease to develop. Fungicide formulation, application and disease assessment on the sprayed leaves followed the procedures as described in the Example A.

A further assay relates to Zymoseptoria tritici. Kind of assay: Leaf Blotch of Wheat fungicidal activity (SEPTTR). The settings on record: Low Volume Cereal Activity at 121.5 g/Ha. The assay is classed as in vivo.
Another assay deals with Venturia inaequalis. Briefly: Apple Scab fungicidal activity (VENTIN). The following applies: 24 h, high volume, 1 Day Protectant, read-out: VENTIN % Control rating. The assay is classed as in vivo. Here is the method: All fungicides were evaluated using the aforementioned method for their activity vs. all target diseases, unless stated otherwise. Wheat leaf blotch and brown rust activity were also evaluated using track spray applications, in which case the fungicides were formulated as EC formulations, containing 0.1% Trycol 5941 in the spray solutions. Wheat plants (variety Yuma) were grown from seed in a greenhouse in 50% mineral soil/50% soil-less Metro mix until the first leaf was fully emerged, with 7-10 seedlings per pot. These plants were inoculated with an aqueous spore suspension of Zymoseptoria tritici either prior to or after fungicide treatments. After inoculation the plants were kept in 100% relative humidity (one day in a dark dew chamber followed by two to three days in a lighted dew chamber at 20° C.) to permit spores to germinate and infect the leaf. The plants were then transferred to a greenhouse set at 20° C. for disease to develop. When disease symptoms were fully expressed on the 1st leaves of untreated plants, infection levels were assessed on a scale of 0 to 100 percent disease severity. Percent disease control was calculated using the ratio of disease severity on treated plants relative to untreated plants. […] Seedlings with two expanding young leaves at the top (older leaves at bottom of the plants were trimmed) were used in the test. Plants were inoculated with a spore suspension of Venturia inaequalis 24 hr after fungicide treatment and kept in a 22° C. dew chamber with 100% relative humidity for 48 hr, and then moved to a greenhouse set at 20° C. for disease to develop. Fungicide formulation, application and disease assessment on the sprayed leaves followed the procedures as described in the Example A.

The subject of the next assay is Cercospora beticola. Kind of assay: Leaf Spot of Sugar Beets fungicidal activity (CERCBE). The settings on record: 24 h, sugar beet, high volume, 1 Day Protectant, read-out: CERCBE % Control rating. The class given is in vivo. Here is the method:
All fungicides were evaluated using the aforementioned method for their activity vs. all target diseases, unless stated otherwise. Wheat leaf blotch and brown rust activity were also evaluated using track spray applications, in which case the fungicides were formulated as EC formulations, containing 0.1% Trycol 5941 in the spray solutions. Wheat plants (variety Yuma) were grown from seed in a greenhouse in 50% mineral soil/50% soil-less Metro mix until the first leaf was fully emerged, with 7-10 seedlings per pot. These plants were inoculated with an aqueous spore suspension of Zymoseptoria tritici either prior to or after fungicide treatments. After inoculation the plants were kept in 100% relative humidity (one day in a dark dew chamber followed by two to three days in a lighted dew chamber at 20° C.) to permit spores to germinate and infect the leaf. The plants were then transferred to a greenhouse set at 20° C. for disease to develop. When disease symptoms were fully expressed on the 1st leaves of untreated plants, infection levels were assessed on a scale of 0 to 100 percent disease severity. Percent disease control was calculated using the ratio of disease severity on treated plants relative to untreated plants. Sugar beet plants (variety HH88) were grown in soil-less Metro mix and trimmed regularly to maintain a uniform plant size prior to test. Plants were inoculated with a spore suspension 24 hr after fungicide treatments. Inoculated plants were kept in a dew chamber at 22° C. for 48 hr then incubated in a greenhouse set at 24° C. under a clear plastic hood with bottom ventilation until disease symptoms were fully expressed. Fungicide formulation, application and disease assessment on the sprayed leaves followed the procedures as described in the Example A.

The mark [1] stands for this setting: 24 h, read-out: PHAKPA 1DP % Control rating, soybean, high volume, 25 ppm, 1 Day Protectant.
The mark [2] stands for this setting: 72 h, read-out: PHAKPA 3DC % Control rating, soybean, high volume, 25 ppm, 3 Day Curative.
[3] abbreviates: 24 h, 1 Day Protectant, read-out: PUCCRT 1DP (Wheat Brown Rust, 1 Day Protectant).
The mark [4] stands for this setting: 72 h, 3 Day Curative, read-out: PUCCRT 3DC (Wheat Brown Rust, 3 Day Curative).
The mark [5] stands for this setting: 24 h, 1 Day Protectant, read-out: SEPTTR 1DP (Wheat Leaf Blotch, 1 Day Protectant).
Setting [6] is: 72 h, 3 Day Curative, read-out: SEPTTR 3DC (Wheat Leaf Blotch, 3 Day Curative).

Regarding `COc1ccnc(C(=O)N[C@@H](C)C(=O)O[C@H](C)[C@@H](Oc2ccccc2)c2ccccc2)c1OCOC(C)=O` [Example 185], the results for the pest or weed control at 25 ppm in the assay on Phakopsora pachyrhizi (setting [1]) and in the assay with Phakopsora pachyrhizi (setting [2]) were under 80% and under 0%, respectively. Besides, the pest or weed control at 121.5 g/ha with Puccinia triticina (setting [3]), in the assay on Puccinia triticina (setting [4]), with Zymoseptoria tritici (setting [5]) and with Zymoseptoria tritici (setting [6]) was over 80% in each case. In addition, the pest or weed control at 100 ppm in the assay with Alternaria solani, in the assay on Venturia inaequalis and in the assay with Cercospora beticola was under 80% throughout.

Take `COc1ccnc(C(=O)N[C@H](C)C(=O)O[C@H](C)[C@@H](Oc2ccccc2)c2ccccc2)c1OCOC(C)=O` [Example 186]: the pest or weed control at 25 ppm in the assay with Phakopsora pachyrhizi (setting [1]) and in the assay on Phakopsora pachyrhizi (setting [2]) was under 0% each time. Also, the pest or weed control at 121.5 g/ha in the assay with Puccinia triticina (setting [3]) is under 0%; with Puccinia triticina (setting [4]), under 0%; in the assay on Zymoseptoria tritici (setting [5]), under 80%; in the assay with Zymoseptoria tritici (setting [6]), under 80%. Further, the pest or weed control at 100 ppm with Alternaria solani, in the assay with Venturia inaequalis and in the assay on Cercospora beticola was under 80% in each case.

For the compound `COc1ccnc(C(=O)N[C@@H](C)C(=O)O[C@@H](C)[C@H](Oc2ccccc2)c2ccc(F)cc2OCC2CC2)c1OC(C)=O` [Example 272], the pest or weed control at 25 ppm in the assay with Phakopsora pachyrhizi (setting [1]) was under 80%; with Phakopsora pachyrhizi (setting [2]), under 0%. Also, the pest or weed control at 121.5 g/ha in the assay on Puccinia triticina (setting [3]), in the assay on Puccinia triticina (setting [4]), with Zymoseptoria tritici (setting [5]) and in the assay with Zymoseptoria tritici (setting [6]) was over 80% in each case.

`COc1ccnc(C(=O)N[C@@H](C)C(=O)O[C@@H](C)[C@H](Oc2ccccc2)c2ccc(F)cc2OCC(F)F)c1OC(C)=O` [Example 273]: the figures for the pest or weed control at 25 ppm in the assay with Phakopsora pachyrhizi (setting [1]) and in the assay with Phakopsora pachyrhizi (setting [2]) were under 80% and under 0%, respectively. For the same compound, the pest or weed control at 121.5 g/ha with Puccinia triticina (setting [3]), in the assay with Puccinia triticina (setting [4]), with Zymoseptoria tritici (setting [5]) and in the assay on Zymoseptoria tritici (setting [6]) was over 80% in each case.

Regarding `COc1cc(C)ccc1[C@@H](Oc1ccc(C)cc1)[C@H](C)OC(=O)[C@H](C)NC(=O)c1nccc(OC)c1OC(C)=O` [Example 274], the pest or weed control at 25 ppm in the assay on Phakopsora pachyrhizi (setting [1]) was under 80%; in the assay on Phakopsora pachyrhizi (setting [2]), under 0%. Moreover, the pest or weed control at 121.5 g/ha in the assay on Puccinia triticina (setting [3]) was over 80%; with Puccinia triticina (setting [4]), under 80%; with Zymoseptoria tritici (setting [5]), over 80%; with Zymoseptoria tritici (setting [6]) it was over 80%.

For `COc1ccnc(C(=O)N[C@@H](C)C(=O)O[C@@H](C)[C@H](Oc2ccccc2)c2ccc(F)cc2Oc2ccccc2)c1OC(C)=O` [Example 275], the values for the pest or weed control at 25 ppm in the assay with Phakopsora pachyrhizi (setting [1]) and with Phakopsora pachyrhizi (setting [2]) were under 80% and under 0%, respectively. Besides, the pest or weed control at 121.5 g/ha in the assay with Puccinia triticina (setting [3]) is over 80%; in the assay with Puccinia triticina (setting [4]) it was over 80%; in the assay with Zymoseptoria tritici (setting [5]) it was over 80%; in the assay with Zymoseptoria tritici (setting [6]), under 80%.

As to `COc1cc(F)ccc1[C@@H](OCC(F)F)[C@H](C)OC(=O)[C@H](C)NC(=O)c1nccc(OC)c1OC(C)=O` [Example 294], the pest or weed control at 25 ppm in the assay with Phakopsora pachyrhizi (setting [1]) and with Phakopsora pachyrhizi (setting [2]) was under 80% in each case. Besides, the pest or weed control at 121.5 g/ha was under 80% with Puccinia triticina (setting [3]), under 80% in the assay with Puccinia triticina (setting [4]), over 80% in the assay with Zymoseptoria tritici (setting [5]) and over 80% in the assay on Zymoseptoria tritici (setting [6]).

In the case of `COc1cc(F)ccc1[C@@H](OCC1CC1)[C@H](C)OC(=O)[C@H](C)NC(=O)c1nccc(OC)c1OC(C)=O` [Example 295], the pest or weed control at 25 ppm with Phakopsora pachyrhizi (setting [1]) is over 80%; in the assay on Phakopsora pachyrhizi (setting [2]) it was under 80%. Further, the pest or weed control at 121.5 g/ha in the assay on Puccinia triticina (setting [3]) was over 80%; in the assay with Puccinia triticina (setting [4]), under 80%; in the assay with Zymoseptoria tritici (setting [5]), over 80%; with Zymoseptoria tritici (setting [6]), over 80%.

On to `COc1cc(F)ccc1[C@@H](OC(=O)C(C)(C)C)[C@H](C)OC(=O)[C@H](C)NC(=O)c1nccc(OC)c1OC(C)=O` [Example 296], for which the pest or weed control at 25 ppm in the assay on Phakopsora pachyrhizi (setting [1]) and in the assay on Phakopsora pachyrhizi (setting [2]) was under 80% in each case. Further, the pest or weed control at 121.5 g/ha was over 80% with Puccinia triticina (setting [3]), under 0% with Puccinia triticina (setting [4]), over 80% in the assay on Zymoseptoria tritici (setting [5]) and over 80% in the assay with Zymoseptoria tritici (setting [6]).

Turning to `COc1cc(F)ccc1[C@@H](OC(=O)C1CC1)[C@H](C)OC(=O)[C@H](C)NC(=O)c1nccc(OC)c1OC(C)=O` [Example 297], the pest or weed control at 25 ppm in the assay on Phakopsora pachyrhizi (setting [1]) and in the assay with Phakopsora pachyrhizi (setting [2]) was under 80% in each case. In addition, the pest or weed control at 121.5 g/ha was under 0% in the assay on Puccinia triticina (setting [3]), under 0% in the assay with Puccinia triticina (setting [4]), under 0% in the assay with Zymoseptoria tritici (setting [5]) and under 80% with Zymoseptoria tritici (setting [6]).

For the compound `COc1cc(F)ccc1[C@H](OC1CC1)[C@H](C)OC(=O)[C@H](C)NC(=O)c1nccc(OC)c1OC(C)=O` [Example 298], the pest or weed control at 25 ppm was over 80% with Phakopsora pachyrhizi (setting [1]) and under 80% in the assay on Phakopsora pachyrhizi (setting [2]). The pest or weed control at 121.5 g/ha in the assay with Puccinia triticina (setting [3]) was under 80%; with Puccinia triticina (setting [4]), over 80%; with Zymoseptoria tritici (setting [5]), under 80%; in the assay with Zymoseptoria tritici (setting [6]) it was under 0%.

On to `COc1cc(F)ccc1[C@@H](OC1CC1)[C@H](C)OC(=O)[C@H](C)NC(=O)c1nccc(OC)c1OC(C)=O` [Example 299], for which the pest or weed control at 25 ppm is over 80% in the assay on Phakopsora pachyrhizi (setting [1]) and under 80% in the assay with Phakopsora pachyrhizi (setting [2]). Moreover, the pest or weed control at 121.5 g/ha in the assay on Puccinia triticina (setting [3]) is over 80%; in the assay on Puccinia triticina (setting [4]) it was under 80%; in the assay with Zymoseptoria tritici (setting [5]), over 80%; in the assay with Zymoseptoria tritici (setting [6]), over 80%.
